In test [1] the test system is LL29 cells (primary human fibroblasts derived from IPF patients) treated with TGF-β1, α-smooth muscle actin. Description: Inhibition of the fibrotic process: αSMA staining in TGF-β1 treated primary human fibroblasts from IPF patients (LL29 cells). Format: cell-based. To be noted: Fibroblast, 96 h; for EC50: LL29 cells treated with TGF-β1 (20 ng/mL), 4 days; for inhibition at 10 µM: LL29 cells treated with TGF-β1, 4 days, read-out: percent inhibition in brackets (given for EC50 >10 μM).

The subject of test [2] is primary human mesenchymal stem cells (hMSCs). The test is described as follows: Induction of chondrogenesis in primary human mesenchymal stem cells (hMSCs), nodule imaging with Rhodamine B / Nile Red. It is filed as cell-based. To be noted: for Emax: hMSCs chondrogenesis, TGF-β3 (10 ng/mL) as positive control, read-out: Max. Activity as % TGF-β3 activity; for EC50: hMSCs, concentration required to induce 50% levels of chondrogenesis vs TGF-β3 positive control, read-out: Conc (nM) of 50% TGF-β3 activity. How it is done: Representative compounds were screened using primary human mesenchymal stem cells (hMSCs) to determine their ability to induce chondrogenesis (process by which cartilage is developed).
Human Mesenchymal Stem Cell Culture: Primary human mesenchymal stem cells (hMSCs) were purchased from Lonza (Walkersville, Md.) and expanded in Mesenchymal Stem Cell Growth Media (Lonza). Cells between passage 3 and 6 were used for the experiments.
Compound Screening: Each compound was dissolved in DMSO as a 10 mM stock and used to prepare compound source plates. For the 96 well assay, serial dilution (1:3, 6-point dose-response curves from 2700 nM to 10 nM) and compound transfer was performed using the ECHO 550 (Labcyte, Sunnyvale, Calif.) into 96-well clear bottom assay plates (Greiner Bio-One) with appropriate DMSO backfill for a final DMSO concentration of 0.03%. hMSCs were plated at 20,000 cells/well in 250 μL/well Incomplete Chondrogenic Induction Medium (Lonza; DMEM, dexamethasone, ascorbate, insulin-transferrin-selenium [ITS supplement], gentamycin-amphotericin [GA-1000], sodium pyruvate, proline and L-glutamine). TGF-β3 (10 ng/mL) was used as a positive control for differentiation while negative control wells were treated with 75 nL DMSO for normalization and calculating EC50 values. For the 384 well assay, serial dilution (1:3, 8-point dose-response curves from 5000 nM to 2.2 nM) and compound transfer was performed using the ECHO 550 (Labcyte, Sunnyvale, Calif.) into 384-well clear bottom assay plates (Greiner Bio-One) with appropriate DMSO backfill for a final DMSO concentration of 0.03%. hMSCs were plated at 8,000 cells/well in 80 μL/well Incomplete Chondrogenic Induction Medium (Lonza; DMEM, dexamethasone, ascorbate, insulin-transferrin-selenium [ITS supplement], gentamycin-amphotericin [GA-1000], sodium pyruvate, proline and L-glutamine). TGF-β3 (10 ng/mL) was used as a positive control for differentiation while negative control wells were treated with 25 nL DMSO for normalization and calculating EC50 values. Cells were incubated at 37° C. and 5% CO2 for 6 days. To image chondrogenic nodules, the cells were fixed using 4% formaldehyde (Electron Microscopy Sciences), and stained with 2 μg/mL Rhodamine B (Sigma-Aldrich) and 20 μM Nile Red (Sigma-Aldrich) [Johnson K., et.al, A Stem Cell-Based Approach to Cartilage Repair, Science, (2012), 336(6082). 717-721]. The nodules imaged (25 images per well for 96 well plates and 9 images per well for 384 well plates at 10× magnification) by excitation at 531 nm and emission at 625 nm and quantified using the CellInsight CX5 (Thermo Scientific). Area of nodules in each well was normalized to the average of 3 DMSO treated wells on the same plate using Excel (Microsoft Inc.). The normalized averages (fold change over DMSO) of 2 or 3 replicate wells for each compound concentration were calculated. Due to solubility limitations of some of the compounds, curve fitting was incomplete leading to inaccurate EC50 determinations.
Using TGF-β3 as a positive control, the concentration of representative compounds required to induce 50% levels of chondrogenesis is reported. In addition, the maximum activity of each compound and the respective dose that each compound reached maximum chondrogenesis activity is reported.

A value given as a limit tells only on which side of the number the result lay.

Regarding `Fc1cccc(-c2cncc3[nH]c(-c4n[nH]c5ccc(-c6ccncc6)nc45)nc23)c1` [Compound 18, 3-(7-(3-Fluorophenyl)-3H-imidazo[4,5-c]pyridin-2-yl)-5-(pyridin-4-yl)-1H-pyrazolo[4,3-b]pyridine], in test [1], the EC50 is > 10 µM and the inhibition at 10 µM turned out to be 0%. Further, in test [2], the Emax is 51% and the EC50 amounted to 7 nM. As to `Cc1ncc(-c2ccc3[nH]nc(-c4nc5c(-c6cccc(F)c6)cncc5[nH]4)c3n2)s1` [Compound 1081, 5-(3-(7-(3-Fluorophenyl)-3H-imidazo[4,5-c]pyridin-2-yl)-1H-pyrazolo[4,3-b]pyridin-5-yl)-2-methylthiazole], the EC50 came out at 1.96 µM in test [1] and 7 nM in test [2]. The Emax in test [2] stood at 81%.

On to `Fc1cccc(-c2cncc3[nH]c(-c4n[nH]c5ccc(-c6cnccn6)nc45)nc23)c1` [Compound 492, 3-(7-(3-Fluorophenyl)-3H-imidazo[4,5-c]pyridin-2-yl)-5-(pyrazin-2-yl)-1H-pyrazolo[4,3-b]pyridine], for which, in test [1], the EC50 is > 10 µM and the inhibition at 10 µM was 0%. In test [2], the Emax turned out to be 67% and the EC50 turned out to be 2 nM.

Take `CC(C)CC(=O)Nc1cncc(-c2ccc3[nH]nc(-c4nc5c(-c6cccc(F)c6)cncc5[nH]4)c3n2)c1` [Compound 2, N-(5-(3-(7-(3-Fluorophenyl)-3H-imidazo[4,5-c]pyridin-2-yl)-1H-pyrazolo[4,3-b]pyridin-5-yl)pyridin-3-yl)-3-methylbutanamide]: the EC50 in test [1] amounted to 4.09 µM; in test [2], 21 nM. Moreover, in test [2], the Emax is 53%. `c1cc(-c2cncc3[nH]c(-c4n[nH]c5ccc(-c6cnccn6)nc45)nc23)ccn1` [Compound 556, 5-(Pyrazin-2-yl)-3-(7-(pyridin-4-yl)-3H-imidazo[4,5-c]pyridin-2-yl)-1H-pyrazolo[4,3-b]pyridine] displayed an EC50 in test [1] of 0.014 µM. Take `CN1CCN(c2cncc3[nH]c(-c4n[nH]c5ccc(-c6cncnc6)nc45)nc23)CC1` [Compound 251, 3-(7-(4-Methylpiperazin-1-yl)-3H-imidazo[4,5-c]pyridin-2-yl)-5-(pyrimidin-5-yl)-1H-pyrazolo[4,3-b]pyridine]: in test [1], the EC50 was > 10 µM and the inhibition at 10 µM worked out at 44.6%. `Cc1ccc(-c2cncc3[nH]c(-c4n[nH]c5ccc(-c6cncc(NC(=O)C7CCCC7)c6)nc45)nc23)s1` [Compound 386, N-(5-(3-(7-(5-Methylthiophen-2-yl)-3H-imidazo[4,5-c]pyridin-2-yl)-1H-pyrazolo[4,3-b]pyridin-5-yl)pyridin-3-yl)cyclopentanecarboxamide]: in test [1], the EC50 was > 10 µM and the inhibition at 10 µM was determined as 0%. As to `c1ccc(CNCc2cncc(-c3ccc4[nH]nc(-c5nc6c(-c7cccnc7)cncc6[nH]5)c4n3)c2)cc1` [Compound 108, N-Benzyl-1-(5-(3-(7-(pyridin-3-yl)-3H-imidazo[4,5-c]pyridin-2-yl)-1H-pyrazolo[4,3-b]pyridin-5-yl)pyridin-3-yl)methanamine], in test [1], the EC50 was > 10 µM and the inhibition at 10 µM amounted to 0%. In test [1], `Cc1ccc(-c2cncc3[nH]c(-c4n[nH]c5ccc(C6=CCNCC6)nc45)nc23)s1` [Compound 686, 3-(7-(5-Methylthiophen-2-yl)-3H-imidazo[4,5-c]pyridin-2-yl)-5-(1,2,3,6-tetrahydropyridin-4-yl)-1H-pyrazolo[4,3-b]pyridine] came in with an EC50 of 4.91 µM. As to `Cn1cc(-c2ccc3[nH]nc(-c4nc5c(-c6cc(F)cc(CNS(C)(=O)=O)c6)cncc5[nH]4)c3n2)cn1` [Compound 720, N-(3-Fluoro-5-(2-(5-(1-methyl-1H-pyrazol-4-yl)-1H-pyrazolo[4,3-b]pyridin-3-yl)-3H-imidazo[4,5-c]pyridin-7-yl)benzyl)methanesulfonamide], in test [1], the EC50 is > 10 µM and the inhibition at 10 µM worked out at 3.8%. `Cn1cc(-c2ccc3[nH]nc(-c4nc5c(-c6ccc(F)cc6)cncc5[nH]4)c3n2)c(CO)n1` [Compound 1084, (4-(3-(7-(4-Fluorophenyl)-3H-imidazo[4,5-c]pyridin-2-yl)-1H-pyrazolo[4,3-b]pyridin-5-yl)-1-methyl-1H-pyrazol-3-yl)methanol] displayed an EC50 in test [1] of 2.3 µM.

On to `Oc1cncc(-c2ccc3[nH]nc(-c4nc5c(-c6cccnc6)cncc5[nH]4)c3n2)c1` [Compound 537, 5-(3-(7-(Pyridin-3-yl)-3H-imidazo[4,5-c]pyridin-2-yl)-1H-pyrazolo[4,3-b]pyridin-5-yl)pyridin-3-ol], for which, in test [1], the EC50 was > 10 µM and the inhibition at 10 µM came to 49.8%. `c1cncc(-c2cncc3[nH]c(-c4n[nH]c5ccc(-c6cncc(OC7CCCCC7)c6)nc45)nc23)c1` [Compound 531, 5-(5-(Cyclohexyloxy)pyridin-3-yl)-3-(7-(pyridin-3-yl)-3H-imidazo[4,5-c]pyridin-2-yl)-1H-pyrazolo[4,3-b]pyridine] came in with an EC50 in test [1] of 3.2 µM. In test [1], `c1cc(-c2cncc3[nH]c(-c4n[nH]c5ccc(-c6cncc(OC7CCNCC7)c6)nc45)nc23)ccn1` [Compound 548, 5-(5-(Piperidin-4-yloxy)pyridin-3-yl)-3-(7-(pyridin-4-yl)-3H-imidazo[4,5-c]pyridin-2-yl)-1H-pyrazolo[4,3-b]pyridine] gave an EC50 of 2.47 µM. Regarding `c1cc2c(cc1-c1cncc3[nH]c(-c4n[nH]c5ccc(C6CCNCC6)nc45)nc13)OCO2` [Compound 1063, 3-(7-(Benzo[d][1,3]dioxol-5-yl)-3H-imidazo[4,5-c]pyridin-2-yl)-5-(piperidin-4-yl)-1H-pyrazolo[4,3-b]pyridine], in test [1], the EC50 is > 10 µM and the inhibition at 10 µM came to 31.3%. Take `C1=C(c2ccc3[nH]nc(-c4nc5c(-c6ccc7c(c6)OCO7)cncc5[nH]4)c3n2)CCNC1` [Compound 1064, 3-(7-(Benzo[d][1,3]dioxol-5-yl)-3H-imidazo[4,5-c]pyridin-2-yl)-5-(1,2,3,6-tetrahydropyridin-4-yl)-1H-pyrazolo[4,3-b]pyridine]: in test [1], the EC50 came to 4.03 µM. Regarding `O=C(Nc1cncc(-c2ccc3[nH]nc(-c4nc5c(-c6ccsc6)cncc5[nH]4)c3n2)c1)c1ccccc1` [Compound 263, N-(5-(3-(7-(Thiophen-3-yl)-3H-imidazo[4,5-c]pyridin-2-yl)-1H-pyrazolo[4,3-b]pyridin-5-yl)pyridin-3-yl)benzamide], in test [1], the EC50 was > 10 µM and the inhibition at 10 µM amounted to 0%. `O=C(Nc1cncc(-c2ccc3[nH]nc(-c4nc5c(-c6ccccc6F)cncc5[nH]4)c3n2)c1)C1CCCC1` [Compound 78, N-(5-(3-(7-(2-Fluorophenyl)-3H-imidazo[4,5-c]pyridin-2-yl)-1H-pyrazolo[4,3-b]pyridin-5-yl)pyridin-3-yl)cyclopentanecarboxamide] registered an EC50 in test [1] of 9.08 µM.

`CN1CCN(c2cncc3[nH]c(-c4n[nH]c5ccc(-c6cncc(NC(=O)C7CCCC7)c6)nc45)nc23)CC1` [Compound 246, N-(5-(3-(7-(4-Methylpiperazin-1-yl)-3H-imidazo[4,5-c]pyridin-2-yl)-1H-pyrazolo[4,3-b]pyridin-5-yl)pyridin-3-yl)cyclopentanecarboxamide]: in test [1], the EC50 is > 10 µM and the inhibition at 10 µM stood at 48.7%. As to `COc1cccc(-c2cncc3[nH]c(-c4n[nH]c5ccc(-c6cncc(NC(=O)Cc7ccccc7)c6)nc45)nc23)c1` [Compound 955, N-(5-(3-(7-(3-methoxylphenyl)-3H-imidazo[4,5-c]pyridin-2-yl)-1H-pyrazolo[4,3-b]pyridin-5-yl)pyridin-3-yl)-2-phenylacetamide], in test [1], the EC50 was > 10 µM and the inhibition at 10 µM came out at 4.2%.

For orientation: inhibition means the share of the control response that was lost under treatment.

(Values after US10188634B2, “3-(3H-imidazo[4,5-C]pyridin-2-yl)-1 H-pyrazolo[4,3-B]pyridines and therapeutic uses thereof” (Samumed, LLC, priority 2015, dated 2019).)
